Test results published in patent publication US5280015A, “2-substituted adenosines and 2-substituted adenosine 5'-carboxamides” (priority 1990, dated 1994).
Where “and” joins values, the source holds several entries; their conditions need not be identical. Equal entries are not always repeated. Structures can show the parent of a compound that is named as a salt. Where two headings read alike, the source gives them in different places.

How the values were obtained:
A1-adenosine receptors = molecular target: T1, A1-adenosine receptors (Rattus norvegicus, UniProt P25099); assay: Competitive binding assay at A1-adenosine receptors, rat cerebral cortex membranes ([3H]PIA or [3H]CHA)
T1 construct: rat cerebral cortex membranes; from tissue; host or cells: rat cerebral cortex membranes
T1 sequence (P25099 1-326): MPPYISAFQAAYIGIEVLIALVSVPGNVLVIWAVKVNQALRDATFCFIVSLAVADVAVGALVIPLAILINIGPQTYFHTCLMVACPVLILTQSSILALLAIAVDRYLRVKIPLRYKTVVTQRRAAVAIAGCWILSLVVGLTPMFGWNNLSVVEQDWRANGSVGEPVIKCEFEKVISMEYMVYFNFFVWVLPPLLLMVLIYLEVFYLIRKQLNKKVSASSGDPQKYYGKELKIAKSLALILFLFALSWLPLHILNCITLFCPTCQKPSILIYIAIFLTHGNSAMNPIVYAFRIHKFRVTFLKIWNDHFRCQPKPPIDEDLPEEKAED

A2-adenosine receptors [1] = molecular target: T2, A2-adenosine receptors (Rattus norvegicus, UniProt P30543); assay: Inhibition of binding of [3H]NECA to A2-adenosine receptors in rat striatal membranes
T2 construct: rat striatal membranes; from tissue; host or cells: rat striatal membranes
Procedure: (§1) Stock solutions of representative compounds of the present invention in the millimolar concentration range in dimethylsulfoxide were prepared for the binding assays. […] Protein was determined using the BCA (based on the complex with cuprous ions and bicinchoninic acid) protein assay reagents purchased from Pierce Chemical Co., Rockford, Ill.
N^6 -Cyclopentyladenosine was present at 50 nM to inhibit binding of the ligand at A1 -adenosine receptors.

A2-adenosine receptors [2] = molecular target: T2, A2-adenosine receptors; assay: Inhibition of binding of [3H]CGS21680 to A2-adenosine receptors in rat striatal membranes
Procedure: as §1
The membrane suspension was then centrifuged at 37,000×g for 20 min at 4° C. The pellet was resuspended in buffer containing 2 IU/ml adenosine deaminase, Type VI from calf intestinal mucosa (Sigma, St. Louis, Mo.) to 20 mg/ml original tissue weight and incubated at 37° C. for 30 min. The membrane homogenate was recentrifuged as before, and the pellet was stored frozen at -70° C. until use.
For competitive binding assays using [^3 H]CGS21680, a volume of 1 ml was used in each 13×100 mm glass tube. […] The mixture was incubated with shaking for 90 min at 24° C. The samples were filtered on a Brandel Cell Harvester (Brandel, Gaithersburg, Md.) with Whatman GF/B filters, and washed rapidly twice with 5 ml of ice cold 50 mM Tris, pH 7.4. Each filter disc was added to 4 ml of scintillation fluid, vortexed, and counted after 6 hours.

A2-adenosine receptors [3] = assay: Competitive binding assay in bovine brain using 125I-PAPA-APEC (striatal membranes); details: for Ki (A1)/K1 (A2): ratio of Ki at A1-receptors (rat) versus Ki in the 125I-PAPA-APEC assay (bovine)
Procedure: (§2) The filters were washed with three×3 ml aliquots of pH 7.2 buffer containing 50 mM HEPES, 10 mM Mg^+2, and 0.05% CHAPS. The filters were placed in polypropylene tubes and counted in a Packard gamma counter.

A2 adenosine receptors = A2 adenosine receptors (Bos taurus, UniProt E1BKU0); assay: as above; set-up: Bovine striatal membranes; from tissue; host or cells: bovine (calf) striatal membranes; details: for Ki: bovine striatum, 11, 12 and 14: apparent Ki
Procedure: as §2

[4] = tested on: locomotor activity in NIH mice; assay: Locomotor depression by A2 adenosine agonists in mice (Digiscan activity monitor); format: in vivo, mouse
[5] = rat, [3H]N6-cyclohexyladenosine (footnote c), read-out: Ki, inhibition of binding at A1-receptors using [3H]N6-cyclohexyladenosine
[6] = read-out: Ki, inhibition of binding of [3H]CGS21680 at A2-receptors
[7] = read-out: Ki, inhibition of binding of 125I-PAPA-APEC at A2-receptors
[8] = rat, [3H]PIA, read-out: Ki, inhibition of binding of [3H]PIA at A1-receptors
[9] = Ki, inhibition of binding of 125I-PAPA-APEC at A2-receptors

Sequence of A2 adenosine receptors (E1BKU0 1-401): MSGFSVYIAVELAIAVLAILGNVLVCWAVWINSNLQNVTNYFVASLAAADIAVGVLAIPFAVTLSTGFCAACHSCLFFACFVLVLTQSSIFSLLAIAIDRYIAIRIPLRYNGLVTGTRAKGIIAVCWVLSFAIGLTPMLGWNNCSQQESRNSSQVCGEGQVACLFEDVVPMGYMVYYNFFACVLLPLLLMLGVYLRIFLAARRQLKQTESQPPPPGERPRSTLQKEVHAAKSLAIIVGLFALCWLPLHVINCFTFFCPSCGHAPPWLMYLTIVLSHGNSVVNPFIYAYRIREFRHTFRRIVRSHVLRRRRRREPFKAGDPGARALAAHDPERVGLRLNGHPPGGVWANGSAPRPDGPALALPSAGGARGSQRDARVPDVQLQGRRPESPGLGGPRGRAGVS
T2 sequence (P30543 whole entry): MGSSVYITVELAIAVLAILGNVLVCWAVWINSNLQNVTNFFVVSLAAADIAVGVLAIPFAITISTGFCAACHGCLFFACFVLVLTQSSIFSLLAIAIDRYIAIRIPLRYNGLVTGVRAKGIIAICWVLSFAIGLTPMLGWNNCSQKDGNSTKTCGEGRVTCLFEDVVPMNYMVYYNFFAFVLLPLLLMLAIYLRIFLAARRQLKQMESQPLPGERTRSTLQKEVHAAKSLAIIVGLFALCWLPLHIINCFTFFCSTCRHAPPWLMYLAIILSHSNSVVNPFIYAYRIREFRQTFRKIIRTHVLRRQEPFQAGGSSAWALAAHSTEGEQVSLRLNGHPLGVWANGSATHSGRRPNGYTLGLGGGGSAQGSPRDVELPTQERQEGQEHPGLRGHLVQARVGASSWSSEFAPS

Compound	Ki (A2-adenosine receptors [2]; [6]) [µM]	Ki (A1)/K1 (A2) (A2-adenosine receptors [3])	Ki (A2 adenosine receptors; [7])	Ki (A1-adenosine receptors; [8]) [µM]	other results
CCNC(=O)[C@H]1O[C@@H](n2cnc3c(N)nc(NCCc4ccc(CCC(=O)OC)cc4)nc32)[C@H](O)[C@@H]1O [Compound 2]	0.005 ± 0.002	370	< 0.01 µM and 0.0061 µM		Ki (A1-adenosine receptors; [5]): 2.26 ± 0.44 µM; Ki (A2-adenosine receptors [1]): 0.0175 ± 0.0016 µM
CCNC(=O)[C@H]1O[C@@H](n2cnc3c(N)nc(NCCc4ccc(CCC(=O)NCCNC(=S)Nc5ccc(S(=O)(=O)O)cc5)cc4)nc32)[C@H](O)[C@@H]1O [Compound 13, 2-[4-[2-[2-[4-(Sulfophenylthioureidyl)]-ethylaminocarbonyl]ethyl]phenyl]ethylamino]-5'-N-ethylcarboxamidoadenosine sodium salt]		347	0.0109 ± 0.0023 µM	3.78 ± 0.8	Ki (A2-adenosine receptors [2]; rat striatum, 11, 12 and 14: apparent Ki, read-out: Ki, inhibition of binding of [3H]CGS21680 at A2-receptors): 0.026 ± 0.01 µM; locomotor depression (% decrease in horizontal activity from vehicle control) ([4]; mouse, in vivo, ip): 41±5%; selectivity for A2 receptors (A2-adenosine receptors [3]; A2 versus A1): more than 200 fold
CCNC(=O)[C@H]1O[C@@H](n2cnc3c(N)nc(NCCc4ccc(CCC(=O)NCCNc5ccc([N+](=O)[O-])c6nonc56)cc4)nc32)[C@H](O)[C@@H]1O [Compound 17]			0.0316 ± 0.0013 µM		affinity at A2-adenosine receptors (A2-adenosine receptors [3]; fluorescent probes, derivatives in general): high affinity
CCNC(=O)[C@H]1O[C@@H](n2cnc3c(N)nc(NCCc4ccc(CCC(=O)NCCNC(=O)CBr)cc4)nc32)[C@H](O)[C@@H]1O [Compound 14]	0.0697	125	0.0158 ± 0.0048 µM	1.98 ± 0.102	
CCCn1c(=O)c2[nH]c(C3CCCC3)nc2n(CCC)c1=S [8-cyclopentyl-1,3-dipropyl-2-thioxanthine]					reversal of APEC locomotor depression by antagonist ([4]; mice, antagonist injected before APEC, 8-cyclopentyltheophylline 10 mg/kg): not
CCNC(=O)[C@H]1O[C@@H](n2cnc3c(N)nc(NCCc4ccc(CCC(=O)NCCCCNC(=O)c5ccc(CF)cc5)cc4)nc32)[C@H](O)[C@@H]1O [Compound 16]	0.0189 ± 0.0049	57	0.0254 ± 0.0076 µM	1.45 ± 0.067	locomotor depression (% decrease in horizontal activity from vehicle control) ([4]; ip, […]): 50±4%; potency in displacing 125I-PAPA-APEC binding (A2 adenosine receptors; bovine brain A2, relative to compounds with Ki less than 10 nM): less potent
CCNC(=O)[C@H]1O[C@@H](n2cnc3c(N)nc(NCCc4ccc(CCC(=O)NCCNC(=S)Nc5ccc(N=C=S)cc5)cc4)nc32)[C@H](O)[C@@H]1O [Compound 12]		39			Ki (A1-adenosine receptors): 0.276 ± 0.075 µM; Ki (A2-adenosine receptors [2]): 0.035 ± 0.01 µM; Ki (A2 adenosine receptors; [9]): < 0.01 µM and 0.0071 µM
CCNC(=O)[C@H]1O[C@@H](n2cnc3c(N)nc(NCCc4ccc(CCC(=O)NCCNC(=O)c5cccc(NC(=O)OCc6ccccc6)c5)cc4)nc32)[C@H](O)[C@@H]1O [Compound 9]	0.012 ± 0.002	78	< 0.01 µM and 0.0087 µM		Ki (A1-adenosine receptors; [5]): 0.68 ± 0.11 µM
CCNC(=O)[C@H]1O[C@@H](n2cnc3c(N)nc(NCCc4ccc(CCC(=O)NCCNC(=O)Cc5ccc(NC(=O)OCc6ccccc6)cc5)cc4)nc32)[C@H](O)[C@@H]1O [Compound 7]	0.037 ± 0.005	45	< 0.01 µM and 0.0062 µM	0.278 ± 0.0187	Ki (A2-adenosine receptors [1]): 0.00559 ± 0.00099 µM
CCNC(=O)[C@H]1O[C@@H](n2cnc3c(N)nc(NCCc4ccc(CCC(=O)NCCN)cc4)nc32)[C@H](O)[C@@H]1O [Compound 3]	0.012 ± 0.003	16	< 0.01 µM and 0.0061 µM	0.235 ± 0.054	Ki (A2-adenosine receptors [1]; read-out: Ki, inhibition of binding of [3H]NECA at A2-receptors, rat striatum, 11, 12 and 14: apparent Ki): 0.00573 ± 0.00052 µM; ED50 ([4]; Mus musculus, ip, read-out: ED50, locomotor depression): 0.016 mg/kg; locomotor depression ([4]; mice, i.p., horizontal activity and total distance traveled): potent locomotor depressant in mice in a dose-dependent manner
CCNC(=O)[C@H]1O[C@@H](n2cnc3c(N)nc(NCCc4ccc(CCC(=O)NCCNC(=S)Nc5cccc(N=C=S)c5)cc4)nc32)[C@H](O)[C@@H]1O [Compound 11]		11			Ki (A1-adenosine receptors): 0.0697 ± 0.0079 µM; Ki (A2-adenosine receptors [1]): 0.00282 ± 0.00038 µM; Ki (A2-adenosine receptors [2]): 0.022 ± 0.007 µM; Ki (A2 adenosine receptors; [9]): < 0.01 µM and 0.0062 µM
